Results on 26 molecules are retold here after patent US5391552A, “Diphenylpiperazine derivative and drug for circulatory organ containing the same” (Pola Chemical Industries, Inc., priority 1990, dated 1995).

The subject of assay [1] is calcium. The experiment in a line: Antagonism against calcium: inhibition of KCl-induced contraction of rat aorta ring specimens (Magnus tube, Test Example 1). Conditions: inhibits 50% of the maximum contraction by KCl (10-60 mM); rat aorta rings, 37 °C; read-out: 50% inhibitory concentration. Details: species or system Male Wistar rats. Here is the method:
Male Wistar rats (300-350g) were exsanguinated to death and submitted to thoracotomy to take off aortae. Ring specimens having a width of 3 to 4 mm were prepared from the aortae. The specimen was suspended in a Magnus tube which was filled with Krebs Henseleit liquid of 37°±0.5° C., aerated with a mixing gas (95% of O2 and 5% of CO2) flowing in the liquid. A load of approximately 2 g was given to the specimen, and a tension variation was isometrically recorded.

In assay [2] the test system is vertebral artery. Briefly: Variation of vertebral artery blood flow amount in anesthetized dogs (Test Example 2). The class given is in vivo, crossbred adult dogs. Conditions: i.v. How it is done: After female and male crossbred adult dogs were put under anesthesia by using pentobarbital-Na, a cannula for blood pressure measuring and a cannula for drug dosing were set to the femoral artery and the femoral vein, respectively. The blood flow was measured using a probe fixed to the vertebral artery.

pIC50: −log10 of the molar value.

On to `OC(CSc1ccccc1)CN1CCN(CC(c2ccccc2)c2ccccc2)CC1` (stereo not drawn) [Compound 47, 1-(2,2-Diphenylethyl)-4-(2-hydroxy-3-phenylthiopropyl)piperazine], for which the pIC50 in assay [1] was 6.16.

As for `OC(CSCc1ccccc1)CN1CCN(C(c2ccc(F)cc2)c2ccc(F)cc2)CC1` (stereo not drawn) [Compound 24, 1-[Bis(4-fluorophenyl)methyl]-4-(2-hydroxy-3-phenylmethylthiopropyl)piperazine], the pIC50 in assay [1] is 5.85.

In the case of `OC(CSc1ccc(Cl)cc1)CN1CCN(CCCC(c2ccc(F)cc2)c2ccc(F)cc2)CC1` (stereo not drawn) [Compound 31, 1-[4,4-Bis(4-fluorophenyl)butyl]-4-[3-(4-chlorophenylthio)-2-hydroxyproply]piperazine], in assay [1], the pIC50 was 5.96.

As for `Nc1ccc(SCC(O)CN2CCN(CCCC(c3ccc(F)cc3)c3ccc(F)cc3)CC2)cc1` (stereo not drawn) [Compound 22, 1-[(4-Aminophenylthio)-2-hydroxypropyl]-4-[4,4bis(4-fluorophenyl)butyl]piperazine], the pIC50 in assay [1] is 6.20.

Consider `COc1ccccc1CCNCC(O)CN1CCN(C(c2ccccc2)c2ccccc2)CC1` (stereo not drawn) [Compound 4, 1-Diphenylmethyl-4-[2-hydroxy-3-{2-(2-methoxyphenyl)ethylamino}propyl]piperazine], for which, in assay [1], the pIC50 is 5.89.

As for `Fc1ccc(C(c2ccc(F)cc2)N2CCN(C/C=C/c3ccccc3)CC2)cc1` [Furnarizine, furnarizine, reference compound], the “Variation of the blood flow amount” value came to 8% in assay [2] (30 μg/kg), 27% in assay [2] (100 μg/kg), 44% in assay [2] (300 μg/kg) and 55% in assay [2] (1000 μg/kg).

As for `COC(CSc1ccccc1)CN1CCN(CCCC(c2ccc(F)cc2)c2ccc(F)cc2)CC1` (stereo not drawn) [Compound 12, 1-[4,4-Bis(4-fluorophenyl)butyl]-4-(2-methoxy-3-phenylthiopropyl)piperazine.2HCl], the pIC50 in assay [1] is 6.70.

With `COc1cccc(SCC(O)CN2CCN(CCCC(c3ccc(F)cc3)c3ccc(F)cc3)CC2)c1` (stereo not drawn) [Compound 43, 1-[4,4-Bis(4-fluorophenyl)butyl]-4-[2-hydroxy-3-(3-methoxyphenylthio)propyl]piperazine], the pIC50 in assay [1] is 6.55. Moreover, the “Variation of the blood flow amount” value in assay [2] (10 μg/kg) is 7%; in assay [2] (30 μg/kg) it was 15%; in assay [2] (100 μg/kg), 55%; in assay [2] (300 μg/kg), 131%.

For the molecule `COc1ccccc1SCC(O)CN1CCN(CCCC(c2ccc(F)cc2)c2ccc(F)cc2)CC1` (stereo not drawn) [Compound 35, 1-[4,4-Bis(4-fluorophenyl)butyl]-4-[2-hydroxy-3-(2-methoxyphenylthio)propyl]piperazine], the pIC50 in assay [1] was 6.80. Further, the “Variation of the blood flow amount” value in assay [2] (10 μg/kg) is on record as 13%; in assay [2] (30 μg/kg), 26%; in assay [2] (100 μg/kg), 66%; in assay [2] (300 μg/kg), 87%.

For `OC(CSc1ccccc1)CN1CCN(CCCC(c2ccccc2)c2ccccc2)CC1` (stereo not drawn) [Compound 51, 1-(4,4-Diphenylbutyl)-4-(2-hydroxy-3-phenylthiopropyl)piperazine], the pIC50 in assay [1] was 6.85.

Turning to `OC(CNCCc1ccccc1)CN1CCN(C(c2ccccc2)c2ccccc2)CC1` (stereo not drawn) [Compound 3, 1-Diphenylmethyl-4-[2-hydroxy-3-(2-phenylethylamino)propyl]piperazine], the pIC50 in assay [1] was 5.89.

Regarding `CC(=O)OC(CSc1ccccc1)CN1CCN(CCCC(c2ccc(F)cc2)c2ccc(F)cc2)CC1` (stereo not drawn) [Compound 14, 1-(2-Acetoxy-3-phenylthiopropyl)-4-[4,4-bis(4-fluorophenyl)butyl]piperazine.2HCl], the pIC50 in assay [1] was 6.55.

Regarding `COc1ccc(SCC(O)CN2CCN(C(c3ccc(F)cc3)c3ccc(F)cc3)CC2)cc1` (stereo not drawn) [Compound 55, 1-[Bis (4-fluorophenyl)methyl]-4-[2-hydroxy-3-(4-methoxyphenylthio)propyl]piperazine], in assay [1], the pIC50 is 5.89.

For `COc1ccc(CCNCC(O)CN2CCN(C(c3ccccc3)c3ccccc3)CC2)cc1OC` (stereo not drawn) [Compound 5, 1-[3-{2-(3,4-Dimethoxyphenyl)ethylamino}-2-hydroxypropyl]-4-diphenylmethylpiperazine], the pIC50 in assay [1] was 5.92.

On to `OC(CNc1ccccc1)CN1CCN(CCCC(c2ccc(F)cc2)c2ccc(F)cc2)CC1` (stereo not drawn) [Compound 6, 1-[4,4-Bis(4-fluorophenyl)butyl]-4-(2-hydroxy-3-phenylaminopropyl)piperazine], for which, in assay [1], the pIC50 was 6.66.

For the molecule `OC(CSc1ccccc1)CN1CCN(CCCC(c2ccc(F)cc2)c2ccc(F)cc2)CC1` (stereo not drawn) [Compound 10, 1-[4,4-Bis(4-fluorophenyl)butyl]-4-(2-hydroxy-3-phenylthiopropyl)piperazine.2HCl], the pIC50 in assay [1] is 6.80. Moreover, the “Variation of the blood flow amount” value in assay [2] (10 μg/kg) is 18%; in assay [2] (30 μg/kg) it was 14%; in assay [2] (100 μg/kg) it was 80%; in assay [2] (300 μg/kg) it was 125%.

Consider `OC(CSc1ccccc1)CN1CCN(C(c2ccc(F)cc2)c2ccc(F)cc2)CC1` (stereo not drawn) [Compound 53, 1-[Bis(4-fluorophenyl)methyl]-4-(2-hydroxy-3-phenylthiopropyl)piperazine], for which, in assay [1], the pIC50 was 5.92.

As to `O[C@@H](CSc1ccccc1)CN1CCN(CCCC(c2ccc(F)cc2)c2ccc(F)cc2)CC1` [Compound 18, (R)-(+)-1-[4,4-Bis(4-fluorophenyl)butyl]-4-(2-hydroxy-3-phenylthiopropyl)piperazine], the pIC50 in assay [1] was 6.89.

Regarding `Cc1ccc(SCC(O)CN2CCN(CCCC(c3ccc(F)cc3)c3ccc(F)cc3)CC2)cc1` (stereo not drawn) [Compound 20, 1-[4,4-Bis(4-fluorophenyl)butyl]-4-[2-hydroxy-3-(4methylphenylthio)propyl]piperazine], in assay [1], the pIC50 was 6.57.

Take `O[C@H](CSc1ccccc1)CN1CCN(CCCC(c2ccc(F)cc2)c2ccc(F)cc2)CC1` [Compound 16, (S)-(-)-1-[4,4-Bis(4-fluorophenyl)butyl]-4-(2-hydroxy-3-phenylthiopropyl)piperazine]: the pIC50 in assay [1] is 7.00.

`OC(CSCc1ccccc1)CN1CCN(CCCC(c2ccc(F)cc2)c2ccc(F)cc2)CC1` (stereo not drawn) [Compound 28, 1-[4,4-Bis(4-fluorophenyl)butyl]-4-(2-hydroxy-3-phenylmethylthiopropyl)piperazine]: the pIC50 in assay [1] was 6.96.

For the molecule `COc1ccccc1SCC(O)CN1CCN(C(c2ccc(F)cc2)c2ccc(F)cc2)CC1` (stereo not drawn) [Compound 45, 1-[Bis(4-fluorophenyl)methyl]-4-[2-hydroxy-3-(2methoxyphenylthio)propyl]piperazine], in assay [1], the pIC50 was 5.96.

Regarding `COc1ccc(SCC(O)CN2CCN(CCCC(c3ccc(F)cc3)c3ccc(F)cc3)CC2)cc1` (stereo not drawn) [Compound 41, 1-[4,4-Bis(4-fluorophenyl)butyl]-4-[2-hydroxy-3-(4-methoxyphenylthio)propyl]piperazine], the pIC50 in assay [1] is 6.37. For the same molecule, the “Variation of the blood flow amount” value in assay [2] (10 μg/kg) is listed as 12%; in assay [2] (30 μg/kg), 25%; in assay [2] (100 μg/kg), 66%; in assay [2] (300 μg/kg), 87%.

As for `Oc1ccc(SCC(O)CN2CCN(CCCC(c3ccc(F)cc3)c3ccc(F)cc3)CC2)cc1` (stereo not drawn) [Compound 39, 1-[4,4-Bis(4-fluorophenyl)butyl]-4-[2-hydroxy-3-(4-hydroxyphenylthio)propyl]piperazine], the pIC50 in assay [1] is 6.47.

As for `OC(CSc1cccc2ccccc12)CN1CCN(CCCC(c2ccc(F)cc2)c2ccc(F)cc2)CC1` (stereo not drawn) [Compound 57, 1-[4,4-Bis(4-fluorophenyl)butyl]-4-[2-hydroxy-3-(1-naphthylthio)propyl]piperazine], the pIC50 in assay [1] is 6.47.

Turning to `OC(CSc1ccc(F)cc1)CN1CCN(CCCC(c2ccc(F)cc2)c2ccc(F)cc2)CC1` (stereo not drawn) [Compound 37, 1-[4,4-Bis(4-fluorophenyl)butyl]-4-[3-(4-fluorophenylthio)-2-hydroxypropyl]piperazine], the pIC50 in assay [1] is 6.85.
